Laboratory results from patent publication US9585893B2, “Flumazenil complexes, compositions comprising same and uses thereof” (COERULEUS LTD., priority 2011, dated 2017).
Structures can show the parent of a compound that is named as a salt.

How the values were obtained:
[1] = assay type: physicochemical
Method: Flumazenil chloride salt consisting of flumazenil and hydrochloride acid was prepared (FIG. 1). […] The concentration of flumazenil in that composition is higher by […] than the concentration of flumazenil in the commercial product Romazicon® (Romazicon® contains 0.01% flumazenil).

[2] = tested on: hepatic encephalopathy in patients with cirrhosis; conditions: intravenous infusion of 1 mg flumazenil in 20 ml saline over 3-5 minutes; cited from earlier work
[3] = adult doses; cited from earlier work

CCOC(=O)c1ncn2c1CN(C)C(=O)c1cc(F)ccc1-2 [Flumazenil chloride salt]
concentration of flumazenil in the composition enabled by increased solubility [1]: 0.66%

CCOC(=O)c1ncn2c1CN(C)C(=O)c1cc(F)ccc1-2 [flumazenil, ethyl 8-fluoro-5,6-dihydro-5-methyl-6-oxo-4H-imidazo[1,5-a][1,4]benzodiazepine-3-carboxylate]
effect on recovery or survival [2]: no significant effect | effect on short-term improvement of hepatic encephalopathy [2]: significant beneficial effect

NC(=O)c1cccnc1 [nicotinamide, 3-pyridinecarboxamide]
dose considered to have toxic potential [3]: > 3 gm/day
